Results taken from patent publication US20050048108A1, “Sulphur-containing amphiphilic agents for the transfer of biologically active molecules into cells” (G.O.T. Therapeutics GMBH, priority 2000, published 2005).

Test system: HeLa (human cervical carcinoma), F98 (rat glioblastoma), IMR90 (human embryonic lung) cell lines
Test: Transfection of adherent cell lines with pUT 651 plasmid (lacZ / β-galactosidase reporter)
Format: cell-based
Settings: all investigated cell lines, versus Lipofectin, LipofectAMINE, DOTAP and DAC-30
Experimental: The gene transfer properties of the lipids according to the invention (lipid 9 (Sulfectin A) and lipid 10 (Sulfectin B)) were tested on various cell lines and were compared with the reagents known heretofore (FIGS. 3, 4 and 5). A plasmid coded for β-galactosidase was used as the reporter system. In the trials, the lipids were also mixed with, among other things, the neutral auxiliary lipid 1,2-dioleoyl-sn-glycero-3-phosphoethanolamine (DOPE). […] Among others a β-galactosidase expression up to 10 times higher was found. This is the more surprising in that in most cases (IMR90 and F98 cells) no admixture of an a helper lipid was necessary. With all the commercial lipids, on the other hand, a portion of DOPE was indispensable for an efficient gene transfer. The high gene transfer efficiency of the pure lipid is also advantageous for the production of the gene transfer reagent, since the formulation step of the cationic lipid and auxiliary lipid is omitted. […]
After a transfection time of 24 h, the medium is changed and the cells are incubated for a further 48 h. […] The lysate is treated with chlorophenol red β-galactopyranoside (Roche Diagnostics, 1 mg/ml in HBSS) as a substrate for β-galactosidase, and the optical density at different intervals is determined with a microplate reader (Dynex) (measurement wavelength 540 nm, reference wavelength 630 nm).

| SMILES | gene transfer (transfection) efficiency compared with the known lipids |
| --- | --- |
| CCCCCCCC/C=C\CCCCCCCC(=O)OCC(CC[S+]([O-])CCCN)OC(=O)CCCCCCC/C=C\CCCCCCCC.O=C(O)C(F)(F)F (centres unmarked) [lipid 10, 3-[(3,4-dioleoyloxybutyl)-sulfinyl]propyl-1-ammonium trifluoroacetate] | markedly higher efficiency |
| CCCCCCCC/C=C\CCCCCCCC(=O)OCC(CCS(=O)(=O)CCCN)OC(=O)CCCCCCC/C=C\CCCCCCCC.O=C(O)C(F)(F)F (centres unmarked) [lipid 9, 3-[(3,4-dioleoyloxybutyl)-sulfonyl]propyl-1-ammonium trifluoroacetate] | markedly higher efficiency |
